Legend:
Format in all cases: functional
[1] = test system: HT-29; assay: Growth inhibition of human HT-29 cells assessed as cell growth at 0.01 uM incubated for 48 hrs by sulforhodamine B assay relative to control; conditions: read-out: Activity
[2] = test system: KM12; assay: Growth inhibition of human KM12 cells assessed as cell growth at 0.01 uM incubated for 48 hrs by sulforhodamine B assay relative to control; conditions: read-out: Activity
[3] = test system: SF-295; assay: Growth inhibition of human SF-295 cells assessed as cell growth at 0.01 uM incubated for 48 hrs by sulforhodamine B assay relative to control; conditions: read-out: Activity
[4] = test system: SK-MEL-2; assay: Growth inhibition of human SK-MEL-2 cells assessed as cell growth at 0.01 uM incubated for 48 hrs by sulforhodamine B assay relative to control; conditions: read-out: Activity
[5] = test system: SK-MEL-5; assay: Growth inhibition of human SK-MEL-5 cells assessed as cell growth at 0.01 uM incubated for 48 hrs by sulforhodamine B assay relative to control; conditions: read-out: Activity
[6] = test system: UACC-257; assay: Growth inhibition of human UACC-257 cells assessed as cell growth at 0.01 uM incubated for 48 hrs by sulforhodamine B assay relative to control; conditions: read-out: Activity
[7] = test system: Hs-578T; assay: Growth inhibition of human Hs-578T cells assessed as cell growth at 0.01 uM incubated for 48 hrs by sulforhodamine B assay relative to control; conditions: read-out: Activity
[8] = test system: MOLT-4; assay: Growth inhibition of human MOLT-4 cells assessed as cell growth at 0.1 uM incubated for 48 hrs by sulforhodamine B assay relative to control; conditions: read-out: Activity
[9] = test system: HT-29; assay: Growth inhibition of human HT-29 cells assessed as cell growth at 0.1 uM incubated for 48 hrs by sulforhodamine B assay relative to control; conditions: read-out: Activity
[10] = test system: SF-295; assay: Growth inhibition of human SF-295 cells assessed as cell growth at 0.1 uM incubated for 48 hrs by sulforhodamine B assay relative to control; conditions: read-out: Activity
[11] = test system: Malme-3M; assay: Growth inhibition of human Malme-3M cells assessed as cell growth at 0.1 uM incubated for 48 hrs by sulforhodamine B assay relative to control; conditions: read-out: Activity
[12] = test system: ACHN; assay: Growth inhibition of human ACHN cells assessed as cell growth at 0.1 uM incubated for 48 hrs by sulforhodamine B assay relative to control; conditions: read-out: Activity
[13] = test system: MOLT-4; assay: Growth inhibition of human MOLT-4 cells assessed as cell growth at 1 uM incubated for 48 hrs by sulforhodamine B assay relative to control; conditions: read-out: Activity
[14] = test system: NCI-H226; assay: Growth inhibition of human NCI-H226 cells assessed as cell growth at 1 uM incubated for 48 hrs by sulforhodamine B assay relative to control; conditions: read-out: Activity
[15] = test system: NCI-H23; assay: Growth inhibition of human NCI-H23 cells assessed as cell growth at 1 uM incubated for 48 hrs by sulforhodamine B assay relative to control; conditions: read-out: Activity
[16] = test system: COLO 205; assay: Growth inhibition of human COLO 205 cells assessed as cell growth at 1 uM incubated for 48 hrs by sulforhodamine B assay relative to control; conditions: read-out: Activity
[17] = test system: HCC 2998; assay: Growth inhibition of human HCC 2998 cells assessed as cell growth at 1 uM incubated for 48 hrs by sulforhodamine B assay relative to control; conditions: read-out: Activity
[18] = test system: SW-620; assay: Growth inhibition of human SW-620 cells assessed as cell growth at 1 uM incubated for 48 hrs by sulforhodamine B assay relative to control; conditions: read-out: Activity
[19] = test system: SK-MEL-5; assay: Growth inhibition of human SK-MEL-5 cells assessed as cell growth at 1 uM incubated for 48 hrs by sulforhodamine B assay relative to control; conditions: read-out: Activity
[20] = test system: MCF7; assay: Growth inhibition of human MCF7 cells assessed as cell growth at 1 uM incubated for 48 hrs by sulforhodamine B assay relative to control; conditions: read-out: Activity
[21] = test system: MDA-MB-231; assay: Growth inhibition of human MDA-MB-231 cells assessed as cell growth at 1 uM incubated for 48 hrs by sulforhodamine B assay relative to control; conditions: read-out: Activity
[22] = test system: Hs-578T; assay: Growth inhibition of human Hs-578T cells assessed as cell growth at 1 uM incubated for 48 hrs by sulforhodamine B assay relative to control; conditions: read-out: Activity
[23] = test system: K562; assay: Growth inhibition of human K562 cells assessed as cell growth at 100 uM incubated for 48 hrs by sulforhodamine B assay relative to control; conditions: read-out: Activity
[24] = test system: HCT-116; assay: Growth inhibition of human HCT-116 cells assessed as cell growth at 100 uM incubated for 48 hrs by sulforhodamine B assay relative to control; conditions: read-out: Activity
[25] = test system: SNB-19; assay: Growth inhibition of human SNB-19 cells assessed as cell growth at 100 uM incubated for 48 hrs by sulforhodamine B assay relative to control; conditions: read-out: Activity
[26] = test system: M14; assay: Growth inhibition of human M14 cells assessed as cell growth at 100 uM incubated for 48 hrs by sulforhodamine B assay relative to control; conditions: read-out: Activity
[27] = test system: UACC-62; assay: Growth inhibition of human UACC-62 cells assessed as cell growth at 100 uM incubated for 48 hrs by sulforhodamine B assay relative to control; conditions: read-out: Activity
[28] = test system: A498; assay: Growth inhibition of human A498 cells assessed as cell growth at 100 uM incubated for 48 hrs by sulforhodamine B assay relative to control; conditions: read-out: Activity
[29] = test system: NCI-H23; assay: Growth inhibition of human NCI-H23 cells incubated for 48 hrs by sulforhodamine B assay
[30] = test system: HCT-116; assay: Growth inhibition of human HCT-116 cells incubated for 48 hrs by sulforhodamine B assay
[31] = test system: SW-620; assay: Growth inhibition of human SW-620 cells incubated for 48 hrs by sulforhodamine B assay
[32] = test system: NCI/ADR-RES; assay: Growth inhibition of human NCI/ADR-RES cells incubated for 48 hrs by sulforhodamine B assay
[33] = test system: TK-10; assay: Growth inhibition of human TK-10 cells incubated for 48 hrs by sulforhodamine B assay
[34] = test system: MCF7; assay: Growth inhibition of human MCF7 cells incubated for 48 hrs by sulforhodamine B assay
[35] = test system: MDA-MB-468; assay: Growth inhibition of human MDA-MB-468 cells incubated for 48 hrs by sulforhodamine B assay
[36] = read-out: LC50 (the source's name)
[37] = read-out: pLC50 (the source's name) (converted)

For `CC(=O)Nc1cc(CO[Si](C)(C)C(C)(C)C)cc(NC(=O)c2ccc(C(=O)Nc3cccc(NC(=O)CCCN(C)C)c3)cc2)c1`, the growth at 0.01 µM [1] was 102%, the growth at 0.01 µM [2] was 98% and the growth at 0.01 µM [3] was 98%. The growth at 0.01 µM [4] was 100%, the growth at 0.01 µM [5] was 98% and the growth at 0.01 µM [6] was 94%. For the same compound, the growth at 0.01 µM [7] was 99%, the growth at 0.1 µM [8] was 91% and the growth at 0.1 µM [9] was 103%. The growth at 0.1 µM [10] was 123%, the growth at 0.1 µM [11] was 92% and the growth at 0.1 µM [12] was 97%. The growth at 1 µM [13] was 91%, the growth at 1 µM [14] was 92% and the growth at 1 µM [15] was 96%. It also gave a growth at 1 µM [16] of 109%, a growth at 1 µM [17] of 94% and a growth at 1 µM [18] of 100%. It also gave a growth at 1 µM [19] of 98%, a growth at 1 µM [20] of 101% and a growth at 1 µM [21] of 106%. The growth at 1 µM [22] was 117%, the growth at 100 µM [23] was 94% and the growth at 100 µM [24] was 85%. For the same compound, the growth at 100 µM [25] was 95%, the growth at 100 µM [26] was 75% and the growth at 100 µM [27] was 72%. For the same compound, the growth at 100 µM [28] was 51%, the GI50 ([29]; read-out: GI50) was greater than 75 µM and the CC50 [29, 36] was greater than 75 µM. For the same compound, the TGI ([29]; read-out: TGI) was greater than 75 µM, the GI50 ([29]; read-out: pGI50 (converted)) was greater than 75.9 µM and the CC50 [29, 37] was greater than 75.9 µM. The TGI ([29]; read-out: pTGI) was greater than 75.9 µM, the GI50 ([30]; read-out: GI50) was greater than 75 µM and the CC50 [30, 36] was greater than 75 µM. For the same compound, the TGI ([30]; read-out: TGI) was greater than 75 µM, the GI50 ([30]; read-out: pGI50 (converted)) was greater than 75.9 µM and the CC50 [30, 37] was greater than 75.9 µM. For the same compound, the TGI ([30]; read-out: pTGI) was greater than 75.9 µM, the GI50 ([31]; read-out: GI50) was greater than 75 µM and the LC50 ([31]; read-out: LC50) was greater than 75 µM. It also gave a TGI ([31]; read-out: TGI) greater than 75 µM, a GI50 ([31]; read-out: pGI50 (converted)) greater than 75.9 µM and an LC50 ([31]; read-out: pLC50 (converted)) greater than 75.9 µM. It also gave a TGI ([31]; read-out: pTGI) greater than 75.9 µM, a GI50 ([32]; read-out: GI50) greater than 75 µM and a CC50 [32, 36] greater than 75 µM. The TGI ([32]; read-out: TGI) was greater than 75 µM, the GI50 ([32]; read-out: pGI50 (converted)) was greater than 75.9 µM and the CC50 [32, 37] was greater than 75.9 µM. For the same compound, the TGI ([32]; read-out: pTGI) was greater than 75.9 µM, the GI50 ([33]; read-out: GI50) was greater than 75 µM and the CC50 [33, 36] was greater than 75 µM. The TGI ([33]; read-out: TGI) was greater than 75 µM, the GI50 ([33]; read-out: pGI50 (converted)) was greater than 75.9 µM and the CC50 [33, 37] was greater than 75.9 µM. The TGI ([33]; read-out: pTGI) was greater than 75.9 µM, the GI50 ([34]; read-out: GI50) was 29.7 µM and the CC50 [34, 36] was greater than 75 µM. The TGI ([34]; read-out: TGI) was greater than 75 µM, the GI50 ([34]; read-out: pGI50 (converted)) was 29.5 µM and the CC50 [34, 37] was greater than 75.9 µM. For the same compound, the TGI ([34]; read-out: pTGI) was greater than 75.9 µM, the GI50 ([35]; read-out: GI50) was greater than 75 µM and the CC50 [35, 36] was greater than 75 µM. The TGI ([35]; read-out: TGI) was greater than 75 µM, the GI50 ([35]; read-out: pGI50 (converted)) was greater than 75.9 µM and the CC50 [35, 37] was greater than 75.9 µM. It also gave a TGI ([35]; read-out: pTGI) greater than 75.9 µM.

Source: ChEMBL document CHEMBL4715697, “Synthesis and biological activity of benzamide DNA minor groove binders” (2016)
